In patent publication US8105630B2, “Composition containing medicine extremely slightly soluble in water being excellent in eluting property and method for preparation thereof” (Kowa Co., Ltd., priority 2003, dated 2012) one finds solubility data, which are given here for four compounds.

Values after ≈ are worked out from the molar mass of the structure shown.

The nature of the series: physchem. The following applies: 25 °C, water.
The solubility is how much of the substance goes into solution per volume. Higher therefore signals a readily soluble substance. As for `O=C(Nc1cccc2c(=O)cc(-c3nnn[nH]3)oc12)c1ccc(OCCCCc2ccccc2)cc1` [pranlukast], the concentration in solution (solubility) came to 0.9 µg/mL (≈ 1.87 µM).

In turn, `CCCCC(=O)O[C@]1(C(=O)COC(C)=O)CC[C@H]2[C@@H]3CCC4=CC(=O)C=C[C@]4(C)[C@H]3[C@@H](O)C[C@@]21C` [prednisolone valerate acetate] displayed a solubility of 4 µg/mL.

For `CSc1ccc(-c2nn(Cc3ccccc3)c(=O)cc2-c2ccc(Cl)cc2)cc1` [Compound A, 2-benzyl-5-(4-chlorophenyl)-6-[4-(methylthio)phenyl]-2H-pyridazin-3-one], the solubility was 0.01 µg/mL (≈ 0.0239 µM).

In turn, `CC(C)CCC[C@@H](C)[C@H]1CC[C@H]2[C@@H]3CC=C4C[C@@H](O)CC[C@]4(C)[C@H]3CC[C@]12C` [cholesterol] registered a solubility of 0.1 µg/mL (≈ 0.259 µM).
